Data reported in US20160287534A1, “METHODS FOR REVERSING FIBROSIS” (The University of Connecticut, priority 2015, published 2016).

How the values were obtained:
Type in all cases: cell-based
LX-2 cells = assay: Cytotoxicity test (Cell Counting Kit-8); settings: ASTX up to 25 μM, 24 h (FIG. 1A)
Protocol: LX-2 cells were incubated with 0-200 μM ASTX for 24 h and its cytotoxicity was measured using a Cell Counting Kit-8 (Dojindo Inc., Rockville, Md.) as previously described (see Yang et al. Food Chem. Toxicol. 2011, vol. 49, pp. 1560-1564). Positive control (0.5 mM SDS) was run in parallel.

α-SMA = assay: Western blot and immunostaining of α-SMA protein in LX-2 cells; settings: 25 μM ASTX (FIGS. 3B, 3C)
Protocol: LX-2 cells were kindly provided by Dr. Scott Friedman at the Icahn School of Medicine at Mount Sinai (New York, N.Y.). Cells were maintained in low-glucose DMEM containing 2% FBS, 4 mM 1-glutamine, 100 U/mL penicillin and 100 μg/mL streptomycin in a 37° C. humidified cell culture chamber providing 5% CO2. LX-2 cells were incubated with varying concentrations of ASTX for 12 or 24 h, and subsequently activated by 2 ng/mL of TGFβ1 (Peprotech, Rocky Hill, N.J.) for 1 to 24 h. Primary mouse HSCs were plated on untreated petri dishes (BD Falcon, Franklin Lakes, N.J.) and maintained in low-glucose DMEM supplemented with 10% FBS, 4 mM L-glutamine, 100 U/mL penicillin and 100 μg/mL streptomycin in a 37° C. humidified cell culture chamber under 5% CO2. ASTX (25 μM) was added at day 2 or day 4 after plating until day 6 with daily media change. […]
Whole cell lysates were prepared to conduct Western blot as we previously described (Id.) using antibodies against α-SMA (Sigma, St. Louis, Mo.), Smad3 (Millipore, Billerica, Mass.), and phospho-Smad3 (Cell Signaling, Danvers, Mass.). β-Tubulin (Santa Cruz Biotechnology, Santa Cruz, Calif.) or β-actin (Sigma, St. Louis, Mo.) was used as a loading control. […] Blots were developed using Westpico horseradish peroxidase chemiluminescence (Pierce, Rockford, Ill.) and images were analyzed using a Chemidoc XRS+system (Bio-Rad) and Image Lab software (Bio-Rad). […]

mouse primary HSCs = assay: Activation of mouse primary qHSCs (Example 2): morphology, qRT-PCR, Western blot
Protocol: (§1) Mouse primary HSCs were isolated from C57BL/6J, nuclear erythroid 2-related factor 2 (NRF2) knockout (Nrf2−/−), and wild-type mice using a pronase/collagenase digestion method as described herein Example 1. The cells were then cultured on untreated petri dishes (BD Falcon, Franklin Lakes, N.J.), and maintained in a low-glucose DMEM medium supplemented with 10% FBS, 4 mM L-glutamine, and P/S (100 U/100 μg per mL). Human primary HSCs (Zen-Bio, Research Triangle Park, N.C.) were maintained in a low-glucose DMEM medium containing 2% FBS, 4 mM L-glutamine, 1× nonessential amino acids, 1× vitamins, and P/S (100 U/100 μg per mL). The cells were seeded on a collagen-coated plate for experiments (Sarstedt, Newton, N.C.). LX-2 cells, kindly provided by Dr. Scott Friedman at the Icahn School of Medicine at Mount Sinai (New York, N.Y.), were maintained in a low-glucose DMEM supplemented with 2% FBS, 4 mM L-glutamine, and P/S (100 U/100 μg per mL). All cells were cultured in a 37° C. humidified cell culture chamber with 5% CO2. Cell culture supplies were purchased from HyClone unless stated otherwise (Thermo Scientific, Logan, Utah).
(§2) ASTX, provided by Fuji Chemical Industry Co., Ltd. (Toyama, Japan), was prepared in DMSO as described herein in Example 1. After plated on an uncoated dish, mouse qHSCs were incubated with 25 μM ASTX during activation. aHSCs, which were prepared by culturing qHSCs on an uncoated dish for 6 d, were incubated with 25 μM ASTX for 2 or 4 more days. Also, cells were incubated with 3 μM tert-butyl hydrogen peroxide (tBHP, Thermo Scientific) for 12 h with or without 25 μM ASTX. Medium containing ASTX was replenished daily and DMSO vehicle control was always run in parallel. Human primary HSC were treated with 25 μM ASTX for 24 h, after which they were activated by 3 ng/mL of TGFβ1 (Peprotech, Rocky Hill, N.J.) for 24 h.
(§3) Total RNA extraction, cDNA synthesis, and qRT-PCR were conducted using a Bio-Rad CFX96 Real-Time system (Bio-Rad, Hercules, Calif.) as previously described (Id.). Primer sequences will be available upon request.
(§4) Whole cell lysates and human tissue protein extracts were prepared and Western blot analysis were performed as described (Id.) using antibodies against α-SMA (Sigma, St. Louis, Mo.), HDAC3 (Santa Cruz Biotechnology, Santa Cruz, Calif.), HDAC4 (Santa Cruz Biotechnology), HDAC9 (Abcam, Cambridge, Mass.; Novus Biologicals, Littleton, Colo.), Col1A1 (Sigma). β-tubulin (Santa Cruz) or glyceraldehyde 3-phosphate dehydrogenase (GAPDH) (Santa Cruz) was used as a loading control.

[1] = tested on: HDAC9 and myocyte enhancer factor 2 (MEF2); assay: HDAC and MEF2 mRNA and protein expression in mouse primary HSCs
Protocol: as §2, §3, §4

human primary HSCs = assay: qRT-PCR of fibrogenic genes in human primary HSCs
Protocol: as §1
ASTX, provided by Fuji Chemical Industry Co., Ltd. (Toyama, Japan), was prepared in DMSO as described herein in Example 1. […]

[2] = ASTX added at day 4 for 2 d during HSC activation (FIG. 8B)
[3] = ASTX added at day 4 for 2 d during HSC activation (FIG. 10D)

## CC1=C(/C=C/C(C)=C/C=C/C(C)=C/C=C/C=C(C)/C=C/C=C(C)/C=C/C2=C(C)C(=O)C(O)CC2(C)C)C(C)(C)CC(O)C1=O (centres unmarked) [ASTX, astaxanthin]
LX-2 cells
  cell viability: more than 90%
α-SMA
  protein levels of α-SMA induced by TGFβ1: significantly decreased
Mouse primary HSCs; [2]
  NOX2 mRNA: decreased
  NOX4 mRNA: significantly increased
Mouse primary HSCs; ASTX for 2 days during activation (FIG. 7C)
  protein levels of α-SMA: noticeably decreased
Mouse primary HSCs; day 6, cells treated with ASTX for 2-6 days (FIG. 7A)
  cytoplasmic lipid droplets: more lipid droplets than controls
Mouse primary HSCs; days 2 and 4 of activation, 25 μM ASTX (FIG. 7A)
  cell morphology vs control: no noticeable differences
Mouse primary HSCs; during activation of qHSCs, 25 μM ASTX (FIG. 7B)
  α-SMA and Col1A1 mRNA: significantly decreased
[1]; [3]
  HDAC2 protein level: minimally altered
  decrease of HDAC3 and 4 protein levels: ~50%
  decrease of HDAC9 protein level: ~70%
[1]; aHSCs incubated with ASTX for 2 d (FIG. 10F)
  mRNA levels of HDAC9: significantly repressed
[1]; aHSCs incubated with ASTX for 2 d (FIG. 10G)
  mRNA levels of MEF2 isoforms: significantly repressed
[1]; during HSC activation, ASTX for 2 d from day 4 (FIG. 10E)
  induction of MEF2a, 2c and 2d mRNA: significantly attenuated
[1]; during activation of qHSCs (FIG. 10B)
  HDAC9 mRNA induction: significantly decreased
Human primary HSCs; 25 μM ASTX 24 h, then TGFβ1 3 ng/ml 24 h (FIGS. 11A, 11B)
  TGFβ1-mediated induction of α-SMA and Col1A1 mRNA: attenuated
Human primary HSCs; 25 μM ASTX (FIGS. 11A, 11B)
  basal levels of α-SMA and Col1A1 mRNA: attenuated
